Reference: patent US9475789B2, “Use of polyenylpyrrole derivatives for treating inflammation” (WELLHEAD BIOLOGICAL TECHNOLOGY CORP., priority 2014, dated 2016)
“Also recorded” adds a separate entry of the source.

Columns and labels:
Format in all cases: cell-based, murine
[1] = test system: LPS-induced NO generation in RAW 264.7 macrophages; assay: NO inhibitory assay (Griess reaction) in LPS-activated macrophages; conditions: for EC50: Mus musculus, RAW264.7, 50% inhibition of the LPS-induced NO generation, RAW 264.7, LPS 1 μg/ml, 24 h, read-out: ED50 (the source's name); for production of NO by LPS-activated cells: RAW 264.7, LPS 1 μg/ml 24 h, Griess reaction; for background level of NO: compound alone, no LPS, RAW 264.7, data not shown
Experimental: In (A) and (C), cells (5×10^5/ml) were incubated with polyenylpyrrole derivatives or DMSO (vehicle) for 30 min followed by stimulating with LPS (1 μg/ml) for 24 h, then NO (A), IL-6 and TNF-α (C) concentration in culture medium were assayed by Griess reaction and ELISA, respectively. In (B), cells (5×10^5/ml) were pretreated with polyenylpyrrole derivatives or DMSO for 30 min followed by stimulating with LPS (1 μg/ml) for 24 h, then the protein expression of iNOS and COX-2 were assayed by Western blot. […] RAW 264.7 cells were seeded in 24-well plates at a density of 5×10^5 cells/ml, and then incubated with or without LPS (1 μg/ml) in the absence or presence of tested samples for 24 h. The effects of the tested samples on NO production were measured indirectly by analysis of nitrite levels using the Griess reaction.

COX-2 = assay: Western blot of COX-2 protein in LPS-activated RAW 264.7 macrophages
Experimental: (§1) In (A) and (C), cells (5×10^5/ml) were incubated with polyenylpyrrole derivatives or DMSO (vehicle) for 30 min followed by stimulating with LPS (1 μg/ml) for 24 h, then NO (A), IL-6 and TNF-α (C) concentration in culture medium were assayed by Griess reaction and ELISA, respectively. In (B), cells (5×10^5/ml) were pretreated with polyenylpyrrole derivatives or DMSO for 30 min followed by stimulating with LPS (1 μg/ml) for 24 h, then the protein expression of iNOS and COX-2 were assayed by Western blot.
(§2) Whole cell lysates were separated by SDS-PAGE and electrotransferred to a PVDF membrane. The membranes were incubated in blocking solution—5% nonfat milk in phosphate buffered saline with 0.1% Tween 20—at room temperature for 1 h. Each membrane was incubated with a specific primary antibody at room temperature for 2 h. After washing three times in PBS with 0.1% Tween 20, the membrane was incubated with an HRP-conjugated secondary antibody directed against the primary antibody. The membrane was developed by an enhanced chemiluminescence Western blot detection system.

RAW 264.7 cells = assay: AlamarBlue assay for cell viability; conditions: Mus musculus, RAW264.7, cytotoxicity against RAW 264.7 cells, 24 h treatment
Experimental: RAW 264.7 cells were seeded at a density of 5000 cells in 100 μl RPMI 1640 medium with 10% heat-inactivated FBS per well in 96-well flat-bottom plates and incubated for 24 h at 37° C. in a 5% CO2 incubator. Cells were incubated with tested samples for 24 h and the AlamarBlue® assay was used to determine the cytotoxicity of the test samples. The procedure was conducted following the protocol described in the manufacture's instruction (AbD Serotec Ltd).
The aim of this study is to identify non-toxic polyenylpyrrole derivatives which can be used as anti-inflammatory agents. Compounds 1a-n were evaluated for their cytotoxicities against the murine macrophages cell line RAW 264.7 after 24 h treatment.

TNF-α = TNF-α ELISA, RAW 264.7 macrophages; conditions: for TNF-α secretion: LPS-activated RAW 264.7, LPS 1 μg/ml 24 h; for background level of TNF-α: compound alone, no LPS, data not shown
Experimental: as §1
(§3) The effects of tested samples on IL-1β, TNF-α and IL-6 production were measured by ELISA according to the manufacturer's instruction. In brief, 50 μl of biotinylated antibody reagent and 50 μl of supernatant were added to an anti-mouse IL-1β, TNF-α and IL-6 precoated stripwell plate, and incubated at room temperature for 2 h. After washing the plate three times with washing buffer, 100 μl of diluted streptavidin-HRP concentrate was added to each well and incubated at room temperature for 30 min. The washing process was repeated; then 100 μl of a premixed tetramethylbenzidine substrate solution was added to each well and developed at room temperature in the dark for 30 min. Following the addition of 100 μl of stop solution to each well to stop the reaction, the absorbance of the plate was measured by a microplate reader at 450 nm wavelength.

IL-6 = IL-6 ELISA, RAW 264.7 macrophages; conditions: for secretion of IL-6: LPS-activated RAW 264.7, LPS 1 μg/ml 24 h; for background level of IL-6: compound alone, no LPS, data not shown
Experimental: as §3

iNOS = assay: Western blot of iNOS protein in LPS-activated RAW 264.7 macrophages; conditions: LPS-activated RAW 264.7, compared with vehicle
Experimental: as §1, §2

ROS = assay: Intracellular ROS production, LPS-activated RAW 264.7 macrophages; conditions: compound 1h 20 μM, NAC 10 mM, 30 min before LPS
Experimental: In (A), RAW 264.7 macrophages (5×10^5/ml) were incubated with compound 1h (20 μM), N-acetyl cysteine (NAC; 10 mM) or DMSO (vehicle) for 30 min followed by LPS (1 μg/ml) stimulating for the indicated time, then ROS levels were measured by detection of the fluorescence intensity of the fluorophore carboxyl-DCF and expressed relative to those at time zero. In (B), RAW 264.7 macrophages (5×10^5/ml) were incubated with compound 1h (20 μM) or DMSO for 30 min followed by LPS (1 μg/ml) stimulating for 0-60 min, then the phosphorylation levels of ERK1/2, JNK1/2, p38 were analyzed by Western blot. In (C), J774A.1 macrophages (5×10^5/ml) were incubated with compound 1h or DMSO for 30 min followed by LPS (1 μg/ml) stimulating for 20 min, then the phosphorylation levels of ERK1/2, JNK1/2, p38 were analyzed by Western blot.
Intracellular ROS stimulated by LPS was measured by detecting the fluorescence intensity of the 2′,7′-dichlorofluorescein diacetate (H2DCFDA) oxidized product (DCF) (Molecular Probes, Eugene, Oreg.). […] The relative fluorescence intensity of fluorophore DCF, formed by peroxide oxidation of the non-fluorescent precursor, was detected at an excitation wavelength of 485 nm and an emission wavelength of 530 nm with a microplate absorbance reader (Bio-Rad Laboratories, Inc).

Row | EC50 [1] [µM] | Structure (SMILES) | production of NO by LPS-activated cells [1] | background level of NO [1] | COX-2 expression (COX-2) | IC50 (RAW 264.7 cells) [µM] | TNF-α secretion (TNF-α) | background level of TNF-α (TNF-α) | secretion of IL-6 (IL-6) | background level of IL-6 (IL-6) | expression of iNOS protein (iNOS) | LPS-stimulated ROS production (ROS)
1 | 16 ± 2 | Cc1c(O)cc(/C=C/C=C/C=C/C=C/c2[nH]ccc2Cl)oc1=O [Compound 1i] | decreased production; also recorded: decreased the production of NO by LPS-activated cells in a dose-dependent manner | did not alter | did not affect | > 100 | slight reduced by compounds 1h, 1i and 1n, but not significantly | did not alter | decreased production; also recorded: decreased the secretion of IL-6 by LPS-activated RAW 264.7 macrophages in a dose-dependent manner | did not alter | decreased production; also recorded: reduced the expression of iNOS protein | 
2 | 29 ± 6 | COc1cc(/C=C/C=C/C=C/C=C/c2sccc2Cl)oc(=O)c1 [Compound 1j] |  |  |  | > 100 |  |  |  |  |  | 
3 | 18 ± 2 | COc1cc(/C=C/C=C/C=C/C=C/c2sccc2Cl)oc(=O)c1C [Compound 1k] |  |  |  | > 100 |  |  |  |  |  | 
4 | 18 ± 3 | COc1cc(/C=C/C=C/C=C/C=C/c2ccccc2Cl)oc(=O)c1C [Compound 1l] |  |  |  | > 100 |  |  |  |  |  | 
5 | 26 ± 3 | COc1cc(/C=C/C=C/C=C/C=C/c2cccc(Cl)c2)oc(=O)c1C [Compound 1m] |  |  |  | > 100 |  |  |  |  |  | 
6 | 17 ± 2 | COc1cc(/C=C/C=C/C=C/C=C/c2c(Cl)ccn2S(C)(=O)=O)oc(=O)c1C [Compound 1n] | decreased production; also recorded: decreased the production of NO by LPS-activated cells in a dose-dependent manner | did not alter | did not affect | > 100 | slight reduced by compounds 1h, 1i and 1n, but not significantly | did not alter | decreased production; also recorded: decreased the secretion of IL-6 by LPS-activated RAW 264.7 macrophages in a dose-dependent manner | did not alter | decreased production; also recorded: reduced the expression of iNOS protein | 
7 |  | CC(=O)N[C@@H](CS)C(=O)O [N-acetyl cysteine, reference compound] |  |  |  |  |  |  |  |  |  | reduced ROS production
